Assay [1] concerns the target T1, HEV-PLpro (HEV papain-like cysteine protease) (Hepatitis E virus (strain Pakistan), UniProt P33424).
T1 sequence (P33424 432-592): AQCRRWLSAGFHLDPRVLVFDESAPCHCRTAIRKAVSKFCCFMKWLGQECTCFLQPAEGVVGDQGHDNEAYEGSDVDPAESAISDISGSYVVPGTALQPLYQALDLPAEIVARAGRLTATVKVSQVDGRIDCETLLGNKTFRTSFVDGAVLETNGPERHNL
The experiment in a line: fluorogenic protease assay. The format is biochemical.

For assay [2], the target named is T1, HEV-PLpro (HEV papain-like cysteine protease). The experiment in a line: fluorogenic protease assay, secondary plot of Km' vs [I]. The class given is biochemical.

Compound `NC(=O)c1ncn([C@@H]2O[C@H](CO)[C@@H](O)[C@H]2O)n1` [RBV, ribavirin] gave an IC50 in assay [1] of 78.3 µM. Also, the affinity in assay [2] corresponds to a Ki of 47.6 µM.

The values are drawn from doi:10.1101/2025.08.17.670703v1 (biorxiv, 2025).
